What was measured:
[1] = molecular target: T1, D2-like dopamine receptors (Rattus norvegicus, UniProt P61169); test: inhibition of tritiated (S)-sulpiride binding to D2-like dopamine receptors, rat striatal tissue; parameters: species or system male Charles River CD rats; conditions: for Ki: 4° C., 40 minutes, pH 7.7; for inhibition at 1 µM: at 10^-6 M, read-out: % displacement of specific binding, D2-like
T1 construct: Striatal tissue from the brains of male Charles River CD rats; from tissue; host or cells: rat striatum (male Charles River CD rats), crude membrane pellet
Method: Striatal tissue from the brains of male Charles River CD rats weighing between 140-250 g were homogenised in ice-cold 50 mM Tris-HCl buffer (pH 7.7 when measured at 25° C.) and centrifuged at 40,000 g for 10 minutes. The pellet was resuspended in Tris salts buffer (50 mM Tris-HCl buffer containing 120 mM NaCl, 5 mM KCl, 2 mM CaCl2 and 1 mM MgCl2 with the addition of 6 mM ascorbic acid; pH 7.7 when measured at 25° C.), and again centrifuged at 40,000 g for 10 minutes. The final pellet was stored at -80° C. Before each test the pellet was resuspended in Tris salts buffer (equivalent to 2 mg wet weight of tissue/ml). Aliquots (720 μl; equivalent to 1.44 mg wet weight of tissue/tube) of this suspension were then added to tubes containing the ligand (40 μl; 1 nM) and Tris salts buffer (40 μl; total binding) or spiroperidol (40 μl; 10 nM; non-specific binding) or test compound (40 μl; at a single concentration of 10^-6 M or at 6 concentrations ranging from 10^-11 -10^-4 M). The ligand was tritiated (S)-sulpiride and the mixture was incubated at 4° C. for 40 minutes before the incubation was terminated by rapid filtration.
The filters were washed with ice-cold Tris-HCl buffer and dried. The filters were punched out in to vials, scintillation fluid added and were left for about 20 hours before being counted by scintillation spectrophotometry. The percentage displacement of specific binding of the tritiated ligand was calculated for the single concentration (10^-6 M) of test compound. Displacement curves were then produced over a range of concentrations for those compounds which displaced ≥50% of specific binding of the tritiated ligand at 10^-6 M. The concentration which gave a 50% inhibition of specific binding (IC50) was obtained from the curve. The inhibition coefficient Ki was then calculated using the formula [formula] in which [ligand] is the concentration of the tritiated ligand used and KD is the equilibrium dissociation constant for the ligand.

5-HT1A = molecular target: T2, 5-HT1A (Rattus norvegicus, UniProt P19327); test: inhibition of tritiated ligand ([3H]8-OH-DPAT) binding to 5-HT1A receptors, rat hippocampal tissue; parameters: species or system male Charles River CD rats; conditions: for inhibition at 1 µM: at 10^-6 M, read-out: % displacement of specific binding, 5-HT1A; for Ki: 25° C., 30 minutes, pH 7.7
T2 construct: Hippocampal tissue from the brains of male Charles River CD rats; from tissue; host or cells: rat hippocampus (male Charles River CD rats), crude membrane pellet
T2 sequence (P19327 1-422): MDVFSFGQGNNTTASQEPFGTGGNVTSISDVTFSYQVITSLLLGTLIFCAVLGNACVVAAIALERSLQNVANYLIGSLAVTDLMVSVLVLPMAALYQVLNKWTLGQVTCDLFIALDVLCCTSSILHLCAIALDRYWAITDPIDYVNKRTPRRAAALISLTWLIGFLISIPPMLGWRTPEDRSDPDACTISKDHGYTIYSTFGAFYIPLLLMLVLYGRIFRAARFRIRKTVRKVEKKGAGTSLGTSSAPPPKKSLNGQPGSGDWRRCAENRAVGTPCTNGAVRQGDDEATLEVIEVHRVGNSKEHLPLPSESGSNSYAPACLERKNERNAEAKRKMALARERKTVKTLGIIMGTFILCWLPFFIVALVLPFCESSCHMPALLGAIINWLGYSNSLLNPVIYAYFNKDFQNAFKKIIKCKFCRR
Method: Hippocampal tissue from the brains of male Charles River CD rats weighing between 150-250 g were homogenised in ice-cold 50 mM Tris-HCl buffer (pH 7.7) when measured at 25° C., 1:40 w/v) and centrifuged at 30,000 g at 4° C. for 10 minutes. The pellet was rehomogenised in the same buffer, incubated at 37° C. for 10 minutes and centrifuged at 30,000 g at 4° C. for 10 minutes. The final pellet was resuspended in 50 mM Tris-HCl buffer (pH 7.7) containing 4 mM CaCl2, 0.1% L-ascorbic acid and 10 μM pargyline hydrochloride (equivalent to 6.25 mg wet weight of tissue/ml) and used immediately in the binding assay. Aliquots (400 μl; equivalent to 2.5 mg wet weight of tissue/tube) of this suspension were added to tubes containing the ligand (50 μl; 2 nM) and distilled water (50 μl; total binding) or 5-HT (50 μl; 10 μM; non-specific binding) or test compound (50 μl; at a single concentration of 10^-6 M or at 10 concentrations ranging from 10^-11 -10^-3 M). The ligand was [^3 H]8-hydroxy-2-(dipropylamino)tetralin ([^3 H]8-OH-DPAT) and the mixture was incubated at 25° C. for 30 minutes before the incubation was terminated by rapid filtration.
The filters were washed with ice-cold Tris-HCl buffer and dried. The filters were punched out into vials, scintillation fluid added and radioactivity determined by liquid scintillation counting. The percentage displacement of specific binding of the tritiated ligand was calculated for the single concentration (10^-6 M) of test compound. Displacement curves were then produced for those compounds which displaced ≥50% of specific binding of the tritiated ligand at 10^-6 M using a range of concentrations of the compound. The concentration which gave 50% inhibition of specific binding (IC50) was obtained from the curve. The inhibition coefficient Ki was then calculated using the formula [formula] in which [ligand] is the concentration of the tritiated ligand used and KD Is the equilibrium dissociation constant for the ligand.

T1 sequence (P61169 whole entry): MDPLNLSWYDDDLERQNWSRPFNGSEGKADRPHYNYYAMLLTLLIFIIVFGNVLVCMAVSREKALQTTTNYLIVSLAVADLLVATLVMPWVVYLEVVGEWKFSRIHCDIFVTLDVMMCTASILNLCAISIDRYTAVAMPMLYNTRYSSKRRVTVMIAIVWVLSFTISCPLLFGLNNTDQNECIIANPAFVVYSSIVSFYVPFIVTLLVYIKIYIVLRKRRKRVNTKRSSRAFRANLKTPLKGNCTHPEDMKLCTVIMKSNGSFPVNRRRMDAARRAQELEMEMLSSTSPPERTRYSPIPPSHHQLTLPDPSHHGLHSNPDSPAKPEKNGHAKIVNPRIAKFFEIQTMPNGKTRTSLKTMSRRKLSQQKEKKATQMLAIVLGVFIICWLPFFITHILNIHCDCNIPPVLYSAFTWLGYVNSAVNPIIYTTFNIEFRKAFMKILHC

Row | Ki [1] [nM] | inhibition at 1 µM (5-HT1A) [%] | Ki (5-HT1A) [nM] | inhibition at 1 µM [1] [%] | SMILES
1 | 227 | 90 |  |  | O=S(=O)(NCC1CCN(C[C@H]2COc3ccc(Cl)cc3O2)CC1)c1ccc(I)cc1 [Example 18, (S)-N-{[1-(7-Chloro-1,4-benzodioxan-2-ylmethyl)-4-piperidyl]methyl}-4-iodo-benzenesulphonamide]
2 | 157 |  | 69 |  | O=S(=O)(NCC1CCN(C[C@H]2COc3ccc(Cl)cc3O2)CC1)c1ccc(Cl)cc1 [Example 11, (S)-(-)-N-{[1-(7-chloro-1,4-benzodioxan-2-ylmethyl)-4-piperidyl]methyl}-4-chlorobenzene-sulphonamide]
3 | 105 |  | 15 |  | O=[N+]([O-])c1ccc(S(=O)(=O)NCC2CCN(C[C@H]3COc4ccc(Cl)cc4O3)CC2)cc1 [Example 4, (S)-(-)-N-{[1-(7-chloro-1,4-benzodioxan-2-ylmethyl)-4-piperidyl]-methyl}-4-nitrobenzenesulphonamide]
4 | 111 |  | 25 |  | O=S(=O)(NCC1CCN(C[C@H]2COc3ccc(C(F)(F)F)cc3O2)CC1)c1cccc(Cl)c1Cl [Example 14, (S)-(-)-2,3-dichloro-N-{[1-(7-trifluoromethyl-1,4-benzodioxan-2-ylmethyl)-4-piperidyl]methyl}benzenesulphonamide]
5 | 235 | 75 |  |  | O=S(=O)(NCC1CCN(C[C@H]2COc3ccc(Cl)cc3O2)CC1)c1cc2nnoc2c2ccccc12 [Example 20, (S)-N-{[1-(7-Chloro-1,4-benzodioxan-2-ylmethyl)-4-piperidyl]methyl}naphth [2,1-d][1,2,3]oxadiazole-5-sulphonamide]
6 | 119 | 91 |  |  | O=[N+]([O-])c1cccc(S(=O)(=O)NCC2CCN(C[C@H]3COc4ccc(Cl)cc4O3)CC2)c1 [Example 25, (S)-N-{[1-(7-Chloro-1,4-benzodioxan-2-ylmethyl)-4-piperidyl]methyl}-3-nitrobenzenesulphonamide]
7 | 519 | 88 |  |  | O=S(=O)(NCC1CCN(C[C@H]2COc3ccc(Cl)cc3O2)CC1)c1ccc(C(F)(F)F)cc1Cl [Example 17, (S)-2-Chloro-N-{[1-(7-chloro-1,4-benzodioxan-2-ylmethyl)-4-piperidyl]methyl}-4-trifluoromethylbenzenesulphonamide]
8 | 23 |  | 14 |  | CC(=O)Nc1ccc(S(=O)(=O)NCC2CCN(C[C@H]3COc4ccc(Br)cc4O3)CC2)cc1 [Example 44, (S)-(-)-4-Acetamido-N-{[1-(7-bromo-1,4-benzodioxan-2-ylmethyl}-4-piperidyl]methyl)benzenesulphonamide]
9 |  | 88 |  | 103 | O=S(=O)(NCC1CCN(C[C@H]2COc3ccc(Br)cc3O2)CC1)c1ccc(F)c(Cl)c1 [Example 48, (S)-(-)-3-Chloro-N-{[1-(7-bromo-1,4-benzodioxan-2-ylmethyl)-4-piperidyl]methyl}-4-fluorobenzenesulphonamide]
10 | 487 | 68 |  |  | O=S(=O)(NCC1CCN(C[C@H]2COc3ccc(Cl)cc3O2)CC1)c1cc(Br)ccc1Br [Example 36, (S)-2,5-Dibromo-N-{[1-(7-Chloro-1,4-benzodioxan-2-ylmethyl)-4-piperidyl]methyl}-benzenesulphonamide]
11 | 285 | 87 |  |  | COc1ccc(OC)c(S(=O)(=O)NCC2CCN(C[C@H]3COc4ccc(Cl)cc4O3)CC2)c1 [Example 32, (S)-N-{[1-(7-Chloro-1,4-benzodioxan-2-ylmethyl)-4-piperidyl]methyl}-2,5-dimethoxybenzenesulphonamide]
12 | 351 | 68 |  |  | COc1ccc(Cl)cc1S(=O)(=O)NCC1CCN(C[C@H]2COc3ccc(Cl)cc3O2)CC1 [Example 27, (S)-5-Chloro-N-{[1-(7-chloro-1,4-benzodioxan-2-ylmethyl)-4-piperidyl]methyl}-2-methoxybenzenesulphonamide]
13 |  | 93 |  | 107 | O=S(=O)(NCC1CCN(C[C@H]2COc3ccc(Cl)cc3O2)CC1)c1ccccc1F [Example 40, (S)-(-)-N-{[1-(7-Chloro-1,4-benzodioxan-2-ylmethyl)-4-piperidyl]methyl}-2-fluorobenzenesulphonamide]
14 | 241 | 65 |  |  | O=S(=O)(NCC1CCN(C[C@H]2COc3ccc(Cl)cc3O2)CC1)c1ccc2ccccc2c1 [Example 30, (S)-N-{[1-(7-Chloro-1,4-benzodioxan-2-ylmethyl)-4-piperidyl]methyl}-2-naphthalenesulphonamide]
15 | 533 | 90 |  |  | O=S(=O)(NCC1CCN(C[C@H]2COc3ccc(Cl)cc3O2)CC1)c1ccc(C(F)(F)F)cc1 [Example 24, (S)-N-{[1-(7-Chloro-1,4-benzodioxan-2-ylmethyl)-4-piperidyl]methyl}-4-trifluoromethylbenzenesulphonamide]
16 | 50.1 |  | 7.4 |  | O=S(=O)(NCC1CCN(C[C@H]2COc3ccc(Cl)cc3O2)CC1)c1c(F)cccc1F [Example 10, (S)-(-)-N-{[1-(7-chloro-1,4-benzodioxan-2-ylmethyl)-4-piperidyl]methyl}-2,6-difluorobenzenesulphonamide]
17 |  | 93 |  | 106 | O=S(=O)(NCC1CCN(C[C@H]2COc3ccc(Cl)cc3O2)CC1)c1ccccc1Cl [Example 41, (S)-(-)-2-Chloro-N-{[1-(7-chloro-1,4-benzodioxan-2-ylmethyl)-4-piperidyl]methyl}benzenesutphonamide]
18 | 306 | 55 |  |  | COc1cc(C)c(S(=O)(=O)NCC2CCN(C[C@H]3COc4ccc(Cl)cc4O3)CC2)c(C)c1C [Example 19, (S)-N-{[1-(7-Chloro-1,4-benzodioxan-2-ylmethyl)-4-piperidyl]methyl}-4-methoxy-2,3,6-trimethylbenzenesulphonamide]
19 |  | 96 |  | 106 | O=S(=O)(NCC1CCN(C[C@H]2COc3ccc(Br)cc3O2)CC1)c1ccccc1Cl [Example 46, (S)-(-)-N-{[1-(7-Bromo-1,4-benzodioxan-2-ylmethyl)-4-piperidyl]methyl}-2-chlorobenzenesulphonamide]
20 | 258 | 84 |  |  | O=S(=O)(NCC1CCN(C[C@H]2COc3ccc(Cl)cc3O2)CC1)c1cc(OCC(F)(F)F)ccc1OCC(F)(F)F [Example 16, (S)-N-{[1-(7-Chloro-1,4-benzodioxan-2-ylmethyl)-4-piperidyl]methyl}-2,5-bis(2,2,2-trifluoroethoxy)benzenesulphonamide]

From US6136825A, “Sulfonamide compounds having 5-HT receptor activity” (Knoll Aktiengesellschaft, priority 1996, dated 2000)
